US20250325508A1, “MODULATORS OF PROTEASOME DYNAMICS AND/OR FUNCTION, COMPOSITIONS, METHODS, AND THERAPEUTIC USES THEREOF” (TECHNION RESEARCH & DEVELOPMENT FOUNDATION LIMITED, priority 2022, published 2025)

Experiments:
Type in all cases: cell-based, human
[1] = system: Ubiquitin conjugates; experiment: Ubiquitin conjugates levels (in-cell Western); conditions: stress, HeLa cells
Experimental: Cells were seeded in a 96-well plate at a density of 15,000 cells/well. ˜36 h later, cells were treated as described and were visualized live, using high-throughput fluorescence microscopy (IXM-C, Molecular Devices) under a controlled environment (21% O2, 5% CO2, 37° C.). Hoechst 33342 was used to stain nuclei of all cells, and SYTOX™ (Thermo) was used to stain dead cells. Data analysis was performed using the Live/Dead module of the MetaXpress software (Molecular Devices). […] For ubiquitination, the inventors used in-cell Western blotting using an anti-Ub-conj [O. Braten et al., Proc. Natl. Acad. Sci. 113, E4639-47 (2016), and a secondary fluorescent antibody. Intensities were quantified using Li-Cor imager and software (Odyssey).

[2] = system: HeLa cells; experiment: Degradation of radiolabeled proteins; conditions: short-term starvation
Experimental: Cells were labeled with [^35S]-methionine and cysteine (20 μCi/ml) for 16 h. This was followed by extensive washing and further incubation in a medium containing 2 mM of the two unlabeled amino acids for 8 h. Degradation rates were assessed by determining the release of labeled amino acids to the incubation medium relative to the radioactivity remained in the cellular proteins (using Trichloroacetic acid precipitation to separate between the two) [R. Gropper et al., Biomed Biochim Acta 50, 321-332 (1991)]. The figure presents mean+/−SD and Student's T-Test p-values of three replicates.

[3] = system: 26S proteasome; experiment: Proteasome subcellular localization in cultured cells (immunofluorescence, cell fractionation/Western blot)
Experimental: Cells were incubated for 20 min in fractionation buffer [20 mM HEPES pH 7.3, 10 mM KCl, 5 mM ATP, 5 mM MgCl2, and protease inhibitor cocktail (Roche)], followed by the addition of Digitonin (0.01%). They were then mixed thoroughly and centrifuged at 1,000×g for 5 min. The supernatant was collected as cytosolic fraction, and the pellet was washed with fractionation buffer supplemented with NP-40 (0.05%) and centrifuged, and the pellet (nuclei) was resuspended in fractionation buffer supplemented with sodium deoxycholate (0.5%), followed by its sonication.
Cells were washed twice with ice cold PBS and scraped into lysis buffer (50 mM Tris-HCl, pH 7.4, 130 mM NaCl, 0.5% NP-40) supplemented with freshly added protease inhibitor cocktail, 5 mM ATP, 10 mM iodoacetamide, and 5 mM N-ethyl maleimide. Protein concentration was measured by the BCA assay according to the manufacturer's instructions (Pierce, Rockford, IL). 30 μg of cellular protein were resolved via SDS-PAGE, transferred to a nitrocellulose membrane and immunoblotted with the appropriate antibody.
Cells were seeded on glass cover slips for 36 h. Following the indicated treatments, they were fixed with 4% PFA for 15 min, washed with phosphate-buffered saline (PBS) and incubated in PBS containing 10% goat serum for 1 h at room temperature, followed by 2 h incubation with the indicated primary antibody. Following extensive wash with PBS, the fixed cells were incubated with the relevant secondary antibody for 1 h, washed and mounted. Images were acquired using Zeiss LSM 700 confocal microscope (Zeiss, Oberkochen, Germany). […]

[4] = system: HeLa cells; experiment: Proteomic mass-spectrometric analysis of cellular protein levels; conditions: St.+LMB or St.+YWF vs Cont.
Experimental: 2-3 mg of cell extract protein in 8 M Urea and 100 mM ammonium bicarbonate, were incubated with DTT (2.8 mM; 30 min at 60° C.), modified with iodoacetamide (8.8 mM; 30 min at room temperature in the dark), and digested (overnight at 37° C.) with modified trypsin (Promega; 1:50 enzyme-to-substrate ratio) in 2 M Urea and 25 mM ammonium bicarbonate. Additional second trypsinization was carried out for 4 h. The tryptic peptides were desalted using Sep-Pak C18 (Waters) and dried. 10 μg of protein were used for proteome analysis as described under Mass spectrometry.
Tryptic peptides were analyzed by LC-MS/MS using a Q Exactive plus mass spectrometer (Thermo Fisher Scientific) fitted with a capillary HPLC (easy nLC 1000, Thermo). […]
The mass spectrometry raw data were analyzed by the MaxQuant software (version 1.4.1.2, http://www.maxquant.org) for peak picking and quantification. […] The MaxQuant software was used for label-free semi-quantitative analysis [based on extracted ion currents (XICs) of peptides], enabling quantification from each LC/MS run for each peptide identified in any of the experiments. In samples that were SILAC-labeled, quantification was also carried out using the MaxQuant software. […]

For `CCC(=C/[C@H](C)C/C=C/C(C)=C/[C@@H](C)C(=O)[C@@H](C)[C@H](O)[C@@H](C)C/C(C)=C/C(=O)O)/C=C/[C@@H]1OC(=O)C=C[C@@H]1C` [Leptomycin B], the “degradation and depletion of ubiquitin adducts” value [1] was “inhibited degradation and depletion of ubiquitin adducts”, the “protein breakdown (degradation of radiolabeled proteins)” value [2] was “near annulment of protein breakdown stimulated by short-term starvation” and the “proteasome translocation from the nucleus to the cytosol” value ([3]; amino acid starvation, substance added to starvation medium) was “inhibition of the translocation”. For the same compound, the proteasome localization ([3]; non-stressed / well-fed cells, complete medium) was “nuclear accumulation of the proteasome” and the “accelerated degradation of cellular proteins upon starvation” value [4] was “accelerated degradation was prevented”.
